Data reported in patent US20120328696A1, “ANTI-PARKINSONIAN COMPOUND ACETYLSALICYLIC ACID MALTOL ESTER” (Hutecs Korea Pharmaceutical Co., Ltd., priority 2008, published 2012).

Experiments:
C57BL/6 mice [1] = assay: Rota-rod test after MPTP; assay type: in vivo; conditions: AME 25 mg/kg p.o.; MPTP 25 mg/kg i.p. once a day for 7 days; 3 days after final MPTP
Protocol: (§1) AME (25 mg/kg, p.o) administration was started 4 days (twice daily) before the first injection of MPTP and continued for 7 consecutive days (once a day). MPTP was injected (25 mg/kg, i.p) once a day 1 h after AME treatment for consecutive 7 days.
The apparatus (Ugo Basile model 7650) consisted of a base platform and a rotating rod with a nonslippery surface. The rod was placed at a height of 15 cm from the base. The rod, 30 cm in length, was divided into 5 equal sections by 6 opaque disks (so that the subjects cannot be distracted by one another). To assess motor performance, the mice were first trained on the apparatus 2 minutes at a rate 4 r.p.m. per 30 s prior to the test. The test was performed 30 minutes after training and an accelerating paradigm was applied at a rate 4 r.p.m. per 30 s, starting from 4 r.p.m. to a maximum speed of 40 r.p.m., then the rotation speed was kept constant at 40 r.p.m. for a maximum of 300 s. The duration for which the animal could maintain balance on the rotating drum was measured as the rotarod latency, with a maximal cut-off time of 300 s.

[2] = system: dopamine (DA), DOPAC, HVA; assay: Striatal DA, DOPAC and HVA after MPTP (HPLC); assay type: in vivo, mice; conditions: AME 25 mg/kg p.o., MPTP 25 mg/kg i.p. x7 days
Protocol: as §1
At 3 days after last MPTP injection, mice were killed by cervical dislocation. The brains were removed and placed on an ice-cooled plate. Striatum was dissected and immediately frozen on dry ice and stored at −70° C. until extraction. Brain regions obtained from each animal were weighed, ultrasonicated in 10% perchloric acid containing 10 ng/mg of the internal standard dihydroxybenzilamine, and centrifuged at 20,000×g for 10 min. The levels of DA and its metabolites 3,4-dihydroxyphenylacetic acid (DOPAC) and homovanillic acid (HVA) in brain tissue extracts were determined by HPLC coupled with electrochemical detection as described (Kim et al., 1999). Briefly, striatal tissues were sonicated in 0.2 M perchloric acid (20% W/V) containing the internal standard 3,4-dihydroxybenzylamine (10 mg wet tissue/ml). The homogenate was centrifuged and a 20 μl aliquot of the supernatant was injected into the HPLC equipped with a 3 μm C18 column. The mobile phase was comprised of 26 ml of acetonitrile, 21 ml of tetrahydrofuran and 960 ml of 0.15 M monochloroacetic acid (pH 3.0) containing 50 mg/l of EDTA and 200 mg/l of sodium octyl sulfate. The amount of DA, DOPAC and HVA were determined by comparison of peak height ratio of tissue sample with standards, and were expressed in nanograms per gram of wet weight of tissue.

[3] = in vitro; Han et al., 1994; cited from earlier work
[4] = system: glutathione peroxidase (GPx); conditions: Kim et al., 1996; cited from earlier work
[5] = Kim et al., 1997b; cited from earlier work
[6] = Kim et al., 1997a; cited from earlier work
[7] = Kim et al., 1997a; cited from earlier work; remark: listed apart in the source
C57BL/6 mice [8] = assay: Locomotor activity after MPTP; assay type: in vivo; conditions: AME 25 mg/kg p.o.; MPTP 25 mg/kg i.p. once a day for 7 days; 3 days after final MPTP
Protocol: as §1
Locomotor activity measured for 30 min 3 days after the last MPTP administration using an automated video-tracking system (Noldus Information Technology, Wagenin, The Netherlands). Eight test boxes (40×40×30 cm high) were operated simultaneously by an IBM computer. Animals were studied individually during locomotion in each test box, where they were adapted for 5 min before starting the experiment. […] The distance traveled in cm by the animals in horizontal locomotor activity was analyzed. Data were collected and analyzed between 09:00 and 17:00 h (Kim et al., 2001).

PKCδ = assay: Striatal PKCδ-like immunoreactivity after MA (immunocytochemistry); assay type: in vivo; conditions: p.o.; AME 50, EBS 20, rottlerin 20 mg/kg; MA 8 mg/kg i.p. x4; GPx-1 (+/+) and (−/−) mice
Protocol: The mice received four times of MA (8 mg/kg, ip) or saline as a 2 hr-time interval. Chemicals (AME, EBS, and PKC inhibitors) were administrated for 5 consecutive days (twice daily), and were given 2 times at 4 hr and 30 min before the first MA injection as shown in the experimental schedule. Animals were sacrificed at 4 hrs and 3 days after the final MA administration.
Animals were sacrificed at 4 hours and 3 days after the last MA injection. They were anesthetized with 60% urethane and perfused transcardially with 50 ml of 50 mM phosphate buffered saline (PBS), followed by 50 ml of a mixture of 4% paraformaldehyde in PBS. The rate of perfusion was 50 ml/min. The brains were removed, post-fixed at 4° C. for 24 h in the same fixative and then cryoprotected in 30% sucrose in PBS.
The immunocytochemistry was performed as described previously (Kim et al., 2000a, b). Briefly, prior to incubation with the primary antibodies, sections were preincubated with 0.3% hydrogen peroxide in PBS for 30 min (to block endogenous peroxidase activity), then in PBS containing 0.4% Triton X-100 for 20 min and 1% normal serum for 20 min. The sections were then incubated for 48 h at 4° C. in primary antibody against tyrosine hydroxylase (1:500, Chemicon, Termecula, Calif., USA), GPx1 (1:500, AbFrontier, Seoul, Korea), PKC (1:200, Santa Cruz biotechnology INC, CA, USA) or F4/80 (1:50, Serotec, Raleigh, N.C., USA). The sections were further incubated with secondary biotinylated antisera (1:1000 dilution; Vector, Brulingame, Calif.) for 1 hr, and immersed in avidin-biotin-peroxidase complex (ABC Elite kit, Vector) for 1 hr. Sections were always washed three times with PBS (pH 7.4) between each incubation step. 3,3′-diaminobenzidine (DAB) was used as a chromogen.

Structure (SMILES)	effect on MPTP-induced impairment in rota-rod performance (C57BL/6 mice [1])	effect on MPTP-induced increase in DA turnover rate ([2]; p<0.01 vs. MPTP alone)	effect on MPTP-induced reduction in striatal HVA ([2]; p<0.01 vs. MPTP alone)	effect on MPTP-induced reduction in striatal dopamine (DA) ([2]; p<0.01 vs. MPTP alone)	effect on MPTP-induced reduction in striatal DOPAC ([2]; p<0.05 vs. MPTP alone)	antioxidative efficacy [3]	activity of glutathione peroxidase (GPx) [4]	neuroexcitotoxicity [5]	antithrombotic efficacy [6]	gastrointestinal damage [7]	effect on MPTP-induced hypolocomotor activity (C57BL/6 mice [8])	effect on MA-induced increase in striatal PKCδ-IR (PKCδ)
CC(=O)Oc1ccccc1C(=O)Oc1c(C)occc1=O [AME, 3-(2-methyl-4-pyronyl)-2-acetyloxybenzoate]	significantly attenuated	significant attenuated	significant attenuated	significant attenuated	significant attenuated	antioxidative efficacy in vitro	elevating the activity of glutathione peroxidase (GPx)	attenuates neuroexcitotoxicity	antithrombotic efficacy	negligible gastrointestinal damage	significant attenuated	significantly attenuated MA-induced increase in striatal PKCδ-IR
O=c1c2ccccc2[se]n1-c1ccccc1 [EBS, 2-phenyl-1,2-benzisoselenazol-3(2H)-one]												significantly attenuated MA-induced increase in striatal PKCδ-IR
CC(=O)c1c(O)c(C)c(O)c(Cc2c(O)c3c(c(C(=O)/C=C/c4ccccc4)c2O)OC(C)(C)C=C3)c1O [rottlerin]												significantly attenuated MA-induced increase in striatal PKCδ-IR
